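Compound exposure: 48 hours, 5 concentrations, 96-well plates. Abbreviation: GI50, concentration required for 50% inhibition of growth.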 Calls of active or inactive are those of the source. No stated cut-off is given here; in the data, active = GI50 up to about 1.1 µM and inactive = higher.
Experiments:
Assay in all cases: inhibition of tumour cell growth, NCI panel, 48 h
OVCAR-3 = system: OVCAR-3
HOP-92 = system: HOP-92
OVCAR-5 = system: OVCAR-5
MDA-MB-231 = system: MDA-MB-231
RPMI-8226 = system: RPMI-8226
TK-10 = system: TK-10
SNB-75 = system: SNB-75
ACHN = system: ACHN
MDA-N = system: MDA-N
NCI/ADR-RES = system: NCI/ADR-RES
M14 = system: M14
COLO 205 = system: COLO 205
NCI-H522 = system: NCI-H522
SF-539 = system: SF-539
PC-3 = system: PC-3
BT-549 = system: BT-549
MCF7 = system: MCF7
SNB-78 = system: SNB-78
KM-20L2 = system: KM-20L2
DLD-1 = system: DLD-1

Row | SMILES | GI50 (OVCAR-3) | GI50 (HOP-92) | GI50 (OVCAR-5) | GI50 (MDA-MB-231) | GI50 (RPMI-8226) | GI50 (TK-10) | GI50 (SNB-75) | GI50 (ACHN) | GI50 (MDA-N) | GI50 (NCI/ADR-RES) | GI50 (M14) | GI50 (COLO 205) | GI50 (NCI-H522) | GI50 (SF-539) | GI50 (PC-3) | GI50 (BT-549) | GI50 (MCF7) | GI50 (SNB-78) | GI50 (KM-20L2) | GI50 (DLD-1)
1 | CC(=O)C(CN1CCCCC1)C(c1ccccc1)c1c(O)c2ccccc2oc1=O (stereo not given) | > 100 µM (inactive) | 41 µM (inactive) | > 100 µM (inactive) | > 100 µM (inactive) | > 100 µM (inactive) | > 100 µM (inactive) | > 100 µM (inactive) | > 100 µM (inactive) | > 100 µM (inactive) | > 100 µM (inactive) | > 100 µM (inactive) | > 100 µM (inactive) | > 100 µM (inactive) | > 100 µM (inactive) | > 100 µM (inactive) | > 100 µM (inactive) | > 100 µM (inactive) | – | – | –
2 | Cc1cc(O)nc(NN2C(Cl)C(=O)C2c2cccc(Cl)c2)n1 (stereo not given) | 12.5 µM (inactive) | 20.6 µM (inactive) | 58.2 µM (inactive) | – | 12.7 µM (inactive) | 36.1 µM (inactive) | 20.8 µM (inactive) | 30 µM (inactive) | – | – | 17.4 µM (inactive) | > 10 µM (inactive) | – | 17.2 µM (inactive) | – | – | – | 22.2 µM (inactive) | 32.9 µM (inactive) | –
3 | O=c1ccc2ccc(CBr)cc2o1 | – | 1.68 µM (inactive) | 1.73 µM (inactive) | 1.72 µM (inactive) | 1.61 µM (inactive) | 1.75 µM (inactive) | > 100 µM (inactive) | – | 3.85 µM (inactive) | 1.69 µM (inactive) | 2.8 µM (inactive) | – | 1.26 µM (inactive) | 3.97 µM (inactive) | > 100 µM (inactive) | 3 µM (inactive) | 1.9 µM (inactive) | – | – | –
4 | COc1cc(C2S/C(=C/c3ccccc3)C(=O)N2c2ccccc2Cl)cc(OC)c1OC (stereo not given) | – | 14.3 µM (inactive) | 42.5 µM (inactive) | 23.4 µM (inactive) | – | 76.2 µM (inactive) | 6.21 µM (inactive) | 44.4 µM (inactive) | 15.7 µM (inactive) | 25.6 µM (inactive) | 20.2 µM (inactive) | 33.3 µM (inactive) | 12.4 µM (inactive) | – | 21.8 µM (inactive) | 29.3 µM (inactive) | 18.6 µM (inactive) | – | – | –
5 | C=C1C(=O)O[C@@H]2[C@H](O)[C@@H](C)[C@@H]3C=CC(=O)[C@@]3(C)[C@@H](OC(=O)/C(C)=C/C)[C@H]12 | 0.719 µM (active) | 0.548 µM (active) | 3.81 µM (inactive) | – | 0.344 µM (active) | – | 2.03 µM (inactive) | – | – | 0.811 µM (active) | – | 0.344 µM (active) | 0.0889 µM (active) | 0.468 µM (active) | – | – | 0.518 µM (active) | 0.871 µM (active) | 1.75 µM (inactive) | 0.728 µM (active)
6 | CCCCCCCCCCCCSC(=S)c1c(C)[nH]n(CCCCCCCCCCCC)c1=O | > 100 µM (inactive) | – | > 100 µM (inactive) | – | 94.8 µM (inactive) | – | > 100 µM (inactive) | 55.2 µM (inactive) | – | – | > 10 µM (inactive) | > 100 µM (inactive) | 99.5 µM (inactive) | > 100 µM (inactive) | – | – | – | > 100 µM (inactive) | 73.1 µM (inactive) | > 100 µM (inactive)
7 | COc1ccc2nc(-n3c(/C=C/c4ccccc4O)nc4ccccc4c3=O)sc2c1 | > 100 µM (inactive) | 60.8 µM (inactive) | > 100 µM (inactive) | > 100 µM (inactive) | 24.9 µM (inactive) | > 100 µM (inactive) | 72.1 µM (inactive) | > 100 µM (inactive) | 17 µM (inactive) | 55.3 µM (inactive) | 33.6 µM (inactive) | > 100 µM (inactive) | 58.1 µM (inactive) | – | 53.5 µM (inactive) | 27.5 µM (inactive) | 47.5 µM (inactive) | – | – | –
8 | COC(=O)C(Cc1ccc2c(c1)OCO2)(NC(=O)c1ccccc1)P(=O)(OC)OC (stereo not given) | – | > 100 µM (inactive) | > 100 µM (inactive) | – | > 100 µM (inactive) | > 100 µM (inactive) | > 100 µM (inactive) | > 100 µM (inactive) | – | – | > 100 µM (inactive) | > 100 µM (inactive) | > 100 µM (inactive) | > 100 µM (inactive) | – | – | – | > 100 µM (inactive) | > 100 µM (inactive) | > 100 µM (inactive)
9 | O=C1CCCN1CCC/N=c1/cc2n(-c3ccc(Cl)cc3)c3ccccc3nc-2cc1Nc1ccc(Cl)cc1 | 2.09 µM (inactive) | 8.17 µM (inactive) | 17 µM (inactive) | – | 5.98 µM (inactive) | – | 25.6 µM (inactive) | – | – | 15.6 µM (inactive) | – | 1.41 µM (inactive) | 9.23 µM (inactive) | 12.7 µM (inactive) | – | – | 7.24 µM (inactive) | 18.9 µM (inactive) | 2.42 µM (inactive) | 4.81 µM (inactive)
10 | O=Cc1ccccc1CCn1c(=O)c2cc3c(=O)n(CCc4ccccc4C=O)c(=O)c3cc2c1=O | > 100 µM (inactive) | – | – | – | – | > 100 µM (inactive) | > 100 µM (inactive) | > 100 µM (inactive) | – | – | – | – | > 100 µM (inactive) | > 100 µM (inactive) | – | – | – | > 100 µM (inactive) | – | > 100 µM (inactive)
11 | Clc1nc(-[n+]2ccc(-c3ccncc3)cc2)nc(Nc2ccccc2)c1Cl | > 100 µM (inactive) | > 100 µM (inactive) | > 100 µM (inactive) | > 100 µM (inactive) | 57.9 µM (inactive) | > 100 µM (inactive) | – | > 100 µM (inactive) | > 100 µM (inactive) | > 100 µM (inactive) | > 100 µM (inactive) | > 100 µM (inactive) | – | > 100 µM (inactive) | > 100 µM (inactive) | > 100 µM (inactive) | 33.1 µM (inactive) | – | – | –
12 | COc1ccc(NC(C)=O)cc1N1C(=O)/C(=C\c2ccccc2)SC1c1cc(OC)c(OC)c(OC)c1 (stereo not given) | 29.4 µM (inactive) | 14.6 µM (inactive) | – | 52.7 µM (inactive) | 34 µM (inactive) | > 100 µM (inactive) | – | 39.2 µM (inactive) | 25.8 µM (inactive) | 17.4 µM (inactive) | 35.6 µM (inactive) | 26.6 µM (inactive) | 13.8 µM (inactive) | 22.6 µM (inactive) | 29 µM (inactive) | 47.4 µM (inactive) | 28.5 µM (inactive) | – | – | –
13 | CC(C)(C)c1ccc2c(c1)OP1(Oc3c(Cl)cc(Cl)c4cccnc34)(O2)Oc2ccc(C(C)(C)C)cc2O1 | 4.78 µM (inactive) | 2.4 µM (inactive) | 13.7 µM (inactive) | – | 3.59 µM (inactive) | – | 15.5 µM (inactive) | – | – | 8.11 µM (inactive) | – | 13.4 µM (inactive) | 2.9 µM (inactive) | 7.78 µM (inactive) | – | – | 4.58 µM (inactive) | 23 µM (inactive) | 4.92 µM (inactive) | 5.2 µM (inactive)

From ChEMBL document CHEMBL1201862, “PubChem BioAssay data set” (2004)
